In PubChem BioAssay AID1996:
Converted amounts (≈) assume the structure as drawn.

conditions: buffer; pH 7.4; 200.0 µM

Structure (SMILES) | solubility kinetic [µg/mL]
COc1ccc(NC2CCCN(C(=O)c3cccnc3)C2)cc1 (centres undefined) | > 46.7
Cc1csc(C)[n+]1CC(=O)c1ccccc1.[Br-] | > 46.8
COc1ccc(OCC(=O)Nc2ccncc2)cc1 | > 38.7
N#Cc1c(-c2ccccc2)nc(-c2cccnc2)[nH]c1=O | 40.2 (≈ 147 µM)
O=[N+]([O-])c1ccc(CN2CCCCCC2)cc1 | > 35.1
COc1ccc(-c2[nH]ncc2CNC(C)Cc2cccc(C)n2)cc1F (centres undefined) | > 53.2
NS(=O)(=O)c1ccc(NC(=O)COC(=O)c2ccc(S(=O)(=O)N3CCOCC3)cc2)cc1 | 13 (≈ 26.9 µM)
COC(=O)c1sccc1NC(=O)c1ccc(C)cc1 | < 0.6
O=C(Nc1ccc(F)cc1)C1CC(=O)N(Cc2ccco2)C1 (centres undefined) | > 45.3
Cc1ccc2[nH]cc(CCNC(=O)c3ccc4c(c3)OCO4)c2c1 | 38.3 (≈ 119 µM)
CCCCOP(=O)(OCCCC)C(O)c1ccc(N(C)C)cc1 (centres undefined) | > 51.5
Cc1cccc(C)c1NC(=O)CN(C)C(=O)C1CC1C (centres undefined) | > 41.2
O=S(=O)(NCCC1=CCCCC1)c1ccccc1Cl | 22 (≈ 73.4 µM)
CCN(C(=O)c1ccc(=O)n(C)n1)c1c(N)n(Cc2ccccc2)c(=O)[nH]c1=O | > 59.5
O=C1N/C(=N/S(=O)(=O)Cc2ccccc2)S/C1=C/c1ccc2c(c1)OCO2 | 51 (≈ 127 µM)
O=C(O)/C=C/C(=O)Nc1ccc(Cc2ccc(NC(=O)/C=C/C(=O)O)cc2)cc1 | 58 (≈ 147 µM)
O=C(O)CCCN1C(=O)c2cccc3cccc(c23)C1=O | 31.8 (≈ 112 µM)
Cc1ccc(S(=O)(=O)N2CCN(C)CC2)cc1 | > 38.2
O=C(NCc1ccc2c(c1)OCO2)c1ccccc1Cl | 40.8 (≈ 141 µM)
O=C1CC(c2ccccc2)CN1C(=O)c1cccnc1 (centres undefined) | 34.8 (≈ 131 µM)
O=C(c1cc(-c2ccncc2)nc2ccccc12)N1CCN(Cc2ccccc2)CC1 | > 61.3
O=C(O)c1ccc(Nc2nc(-c3cccnc3)cs2)cc1O | > 47
O=C(CN1C(=O)/C(=C2/SC(=S)N(CCS(=O)(=O)O)C2=O)c2ccccc21)Nc1cccc(Br)c1 | 14.3 (≈ 24.6 µM)
CCCCc1ccc(NC(=S)N2CCN(c3ccccn3)CC2)cc1 | 0.8 (≈ 2.26 µM)

Structure (SMILES) | solubility kinetic [µg/mL]
CC(=NCC1CCCO1)c1c(O)n(C2CCCCC2)c(=O)[nH]c1=O (centres undefined) | > 50.3
Cn1c(SCC(N)=O)nnc1-c1ccc(C(C)(C)C)cc1 | > 45.7
COc1ccccc1N(CC(=O)Nc1ccccc1C(F)(F)F)S(=O)(=O)c1cccs1 | 9 (≈ 19.1 µM)
CC(C)NCc1nnc(-c2ccc(Cl)cc2)o1 | > 37.8
C=CCNC(=O)CN1CCC(c2nc3ccccc3[nH]2)CC1 | > 44.8
Cc1ccc(S(=O)(=O)NC2CCCCCC2)cc1 | > 40.1
Cc1ccc(NC(=O)C2CCCN(c3ncccn3)C2)cc1C (centres undefined) | 2.1 (≈ 6.77 µM)
Cc1ccc(C(=O)Nc2ccccc2N2CCCCC2)cc1 | < 0.3
O=C(Cc1ccc(Cl)cc1)N1CCN(c2ccccc2)CC1 | 44.5 (≈ 141 µM)
Cc1csc(NC(=O)Cc2ccc(Cl)cc2)n1 | 22.2 (≈ 83.2 µM)
CN(C)CCNC(=O)c1scc2c1CCCC2.Cl | > 43.3
O=C(O)c1ccccc1C(=O)Nc1nc(-c2ccccc2)cs1 | 43.2 (≈ 133 µM)
C=CCN(c1ccccc1OC)S(=O)(=O)c1cccc(C(=O)OCC(=O)N2CC(C)OC(C)C2)c1 (centres undefined) | 52.7 (≈ 105 µM)
COc1cc(C(C)=O)ccc1Oc1cnccn1 | > 36.6
Cc1cc(C)c2cc(C(=O)N3CCc4ccccc4C3)[nH]c2c1 | 0.5 (≈ 1.64 µM)
CCOc1cc(N2CCOCC2)c(OCC)cc1NC(=O)COC(=O)C1CCCN1S(=O)(=O)c1ccccc1F (centres undefined) | 84.7 (≈ 146 µM)
CCNC(=S)Nc1ccc(-c2nc3ccccc3[nH]2)cc1 | > 44.5
Cc1cc(SCc2ccccc2F)nc(=O)[nH]1 | > 37.5
S=c1[nH]nc(-c2cccc3ccccc23)n1-c1cccnc1 | > 45.7
O=C(Nc1cccc([N+](=O)[O-])c1)C1C2CC/C=C\CCC21 (centres undefined) | 0.8 (≈ 2.79 µM)
O=C(Cc1ccc([N+](=O)[O-])cc1)N1CCCc2ccccc21 | 39.5 (≈ 133 µM)
COc1ccc(N2CCC(CNC(=O)Nc3cccc(OC)c3)C2)cc1 (centres undefined) | 34.5 (≈ 97.1 µM)
O=c1[nH]c(CN2CCOCC2)nc2scc(-c3ccccc3)c12 | 23.9 (≈ 73 µM)
CCn1c(C)c(C)c2cc(C(=O)NCCc3ccco3)ccc21 | 24.4 (≈ 78.6 µM)

Structure (SMILES) | solubility kinetic [µg/mL]
CCCC(CNC(=O)COC(=O)C1=NNC(=O)CC1)c1ccc(Cl)cc1Cl (centres undefined) | > 62.1
COc1cc(N2C(=O)CSC2=S)cc(OC)c1OC | 41 (≈ 137 µM)
OC(CN1CCc2ccccc2C1)c1ccccc1 (centres undefined) | > 38
c1ccc(CNCCc2c[nH]c3ccccc23)cc1 | 37.2 (≈ 149 µM)
COc1ccccc1NS(=O)(=O)c1cc(N)ccc1N1CCOCC1 | 5 (≈ 13.8 µM)
CN(C)/C(=N\S(=O)(=O)c1ccccc1)c1ccccc1 | > 43.3
CCCCc1nnc(NC(=O)C(=O)OCC)s1 | > 38.6
O=C(c1ccc(=O)[nH]c1)N1CCCc2ccccc21 | > 38.1
CN(C)C(=O)C#Cc1ccccc1 | > 26
O=C1Nc2ccc(S(=O)(=O)NCCCO)c3cccc1c23 | > 46
CC(C)NC(=O)C(=O)c1cn(C)c2ccccc12 | 33.3 (≈ 136 µM)
Cl.N=c1ccn(Cc2cccc(F)c2)cc1 | 30.8
CCc1cc(=O)[nH]c(SCC(=O)Nc2cc(C)on2)n1 | > 44.1
CN(CC(=O)Nc1ccccc1)CC(=O)Nc1ccc(F)cc1 | 30.7 (≈ 97.4 µM)
CCOc1cccc(CNc2nnnn2C)c1 | > 35
CC1C2NC(=O)N(Cc3ccccc3)C1(C)Oc1ccccc12 (centres undefined) | 20.9 (≈ 67.8 µM)
CCOC(=O)c1[nH]c(C)c(C(=O)OCc2ccc(C)cc2)c1C | 1.1 (≈ 3.49 µM)
Cc1cc(-c2onc3ccc(Cl)cc23)ccc1O | 16.3 (≈ 62.8 µM)
CC(NCc1ccccc1Cl)C(=O)Nc1ccc(C#N)cc1 (centres undefined) | 44.5 (≈ 142 µM)
Cc1ncc(CN2CCC(CO)(Cc3ccccc3)CC2)s1 | 45.5 (≈ 144 µM)
COCCCNC(=S)N1CCN(C)CC1 | > 34.7
COc1cccc(C(=O)OCC(=O)NC23CC4CC(CC(C4)C2)C3)c1 | 19.8 (≈ 57.7 µM)
NC(=O)c1cccnc1Oc1ccc(Cl)cc1Cl | 37.1 (≈ 131 µM)
O=C(CNC(=O)[C@@H]1Cc2ccccc2CN1)NCc1ccco1 | > 47

Structure (SMILES) | solubility kinetic [µg/mL]
CC(=O)Nc1cc(O)cc(O)c1 | > 25.1
CCCCc1ccc(NC(=O)N[C@@H](C)C(=O)O)cc1 | > 39.6
c1ccc(N2CCN(c3nc4ccccc4[nH]3)CC2)nc1 | 41.7 (≈ 149 µM)
CC(=O)Nc1ccc(SCC(=O)N(C)CC(=O)Nc2ccccc2Cl)cc1 | > 60.9
O=c1[nH]c2ccccc2nc1Cc1ccc(Cl)cc1 | 0.9 (≈ 3.32 µM)
Cc1ccc(NC(=O)CCn2cnc3ccccc3c2=O)c(C)c1 | 13.7 (≈ 42.6 µM)
COc1ccc(Cl)cc1NS(=O)(=O)N1CCOCC1 | > 46
Br.COc1ccc(-c2nc3n(c2C)CCC3)cc1 | > 46.4
COc1ccc(COC(=O)CNC(=O)C2CCCCC2)cc1F | 18.4 (≈ 56.9 µM)
Cc1ccc(NC(=O)Cc2nc(COC(=O)c3c(F)cccc3Cl)cs2)cc1 | 7.5 (≈ 17.9 µM)
Cc1cc(=O)[nH]c(SCC(=O)Nc2nonc2C)n1 | > 42.2
O=C(NCC(c1cccs1)N1CCOCC1)c1cccnc1 (centres undefined) | 43.6 (≈ 137 µM)
O=C(/C=C/c1ccco1)N(Cc1ccccc1)C1CCS(=O)(=O)C1 (centres undefined) | 47.1 (≈ 136 µM)
O=C(CCl)Nc1ccc(S(=O)(=O)Nc2nccs2)cc1 | 34 (≈ 102 µM)
c1ccc2c(SCc3cn4ccccc4n3)nncc2c1 | > 43.9
CCCC(C(=O)O)n1c(O)c(C=C2N=c3ccccc3=N2)sc1=S (centres undefined) | > 54.2
C=CCNC(=O)C(C)N1c2cccc3cccc(c23)S1(=O)=O (centres undefined) | > 47.5
Cc1cccc(C)c1OCC(=O)Nc1ccccc1C(F)(F)F | 1.6 (≈ 4.95 µM)
C=CCn1cnc2scc(-c3ccc(OC)cc3)c2c1=O | 39 (≈ 131 µM)
Cc1ccccc1N1CCN(Cc2ccc(Br)o2)CC1 | 4.3 (≈ 12.8 µM)
CCC1CCCCN1C(=O)COC(=O)c1cccs1 (centres undefined) | > 42.2
Cc1ccc(C(=O)NCCCNC(=O)Cc2ccccc2)cn1 | > 46.7
O=C(O)Cc1csc(-c2cccc(F)c2)n1 | > 35.6
O=C(NC1=NCCS1)c1ccc(F)c(S(=O)(=O)N2CCOCC2)c1 | > 56

Structure (SMILES) | solubility kinetic [µg/mL]
CN(CCS(=O)(=O)c1ccc(Cl)cc1)Cc1cccnc1 | > 48.7
Cc1ccc(C2=NOC(=O)/C2=C\c2ccccc2)cc1 | 33.7 (≈ 128 µM)
COc1ccc(C(=O)Nc2cccc3c2CCCC3)cc1OC | 1 (≈ 3.21 µM)
Cc1csc(=O)n1CCC(=O)OCc1nnc(-c2ccccc2Cl)o1 | > 57
O=C(CN1CCCC1)Nc1cccc(Cl)c1Cl | 28.4 (≈ 104 µM)
CN(C)/C(=N\O)c1c(Cl)cccc1Cl | > 35
Cc1ccc(N2C(=S)NC3c4ccccc4OC2(C)C3C(=O)N(C)C)cc1 (centres undefined) | 50.9 (≈ 133 µM)
O=S(=O)(Cc1noc(-c2ccc(Cl)cc2)n1)Cc1ccco1 | 3 (≈ 8.86 µM)
Nc1ncnc(N2CCc3ccccc32)c1[N+](=O)[O-] | 1.8 (≈ 7 µM)
Cc1[nH]c2ccc(C(=O)NCc3ccccn3)cc2c1C | > 41.9
Cc1cccc(NC(=O)C(C)N2CC=C(c3ccccc3)CC2)c1 (centres undefined) | 2.9 (≈ 9.05 µM)
O=C1NC(=O)N(CC2CCCO2)C(=O)/C1=C/c1cccs1 (centres undefined) | > 46
Cc1ccnc(NC(=O)CCc2c[nH]c3ccccc23)c1 | > 41.9
O=C(COC(=O)[C@@H]1CCCN1C(=O)c1cccs1)Nc1cccc([N+](=O)[O-])c1 | 2.8 (≈ 6.94 µM)
CC(C)c1ccccc1OCC(=O)N1CCCCCCC1 | 18.8 (≈ 65 µM)
S=c1[nH]c(-c2cccs2)cn1-c1ccccc1 | 10.5 (≈ 40.6 µM)
CCCCS(=O)(=O)N1CCCC(C(=O)NCC2CCCO2)C1 (centres undefined) | 41.1 (≈ 124 µM)
O=C(c1ccccc1)C(C(=O)N1CCCCC1)n1ccccc1=O (centres undefined) | > 48.7
Cc1ccc(NC(=S)NC(=O)C2CC2)c(C)c1 | 5.9 (≈ 23.8 µM)
CCC(C)NC(=O)C1CC(=O)N(CCc2ccc(F)cc2)C1 (centres undefined) | > 46
COc1ccc(S(=O)(=O)N2CCCCC2)cc1NC(=O)Cn1cnc2c1c(=O)n(C)c(=O)n2C | 28.5 (≈ 58.1 µM)
Cc1cc(=O)oc2cc(NC(=O)c3cc(F)ccc3F)ccc12 | 2.1 (≈ 6.66 µM)
c1ccc(-c2cc(-c3ccccc3)ncn2)cc1 | 4.6 (≈ 19.8 µM)
